Biological target: Dual specificity tyrosine-phosphorylation-regulated kinase 1A (Homo sapiens, UniProt Q13627)
Assay: Inhibition of GST-tagged human DYRK1A using dephosphorylated MBP as substrate after 10 mins by Kinase-Glo plus luminescent kinase assay

O=C(O[C@@H]1Cc2c(O)cc(O)cc2O[C@@H]1c1cc(O)c(O)c(O)c1)c1cc(O)c(O)c(O)c1 [EPIGALOCATECHIN GALLATE]
IC50: 13.4 µM

Source: ChEMBL document CHEMBL1932955, “Discovery of potent small molecule inhibitors of DYRK1A by structure-based virtual screening and bioassay” (Bioorg Med Chem Lett, 2012)
